Experimental data taken from US7541020B2, “Aminoalkyl glucosaminide phosphate compounds and their use as adjuvants and immunoeffectors” (priority 1997, dated 2009).
“And” between values parts separate entries of the source, which are not always exact repeats. Equal entries are not always repeated. Where two headings read alike, the source gives them in different places.

What was measured:
influenza A/HK/68 [1] = experiment: Second intranasal influenza vaccine experiment with aqueous AGP and MPL formulations: vaginal, tracheal wash and serum titers, protection; assay type: in vivo, BABL/c mice
[2] = Fever response in rabbits (pyrogenicity); assay type: in vivo; conditions: 10 ug/kg; cumulative rise ≥1.5 degree in three rabbits is considered pyrogenic
Protocol: The AGP compounds were also evaluated for their tendency to induce a fever response in rabbits. Each compound was formulated in 10% (v/v) ethanol/water solution at 100 mg/ml, then diluted with D5W to the desired concentration. The material was injected at 3 ml/kg body weight into 3 rabbits. The rise in core temperature of the rabbits was recorded.

influenza A/HK/68 [3] = tested on: influenza A/HK/68; set-up: species or system ICR mice; conditions: mouse, in vivo
[4] = tested on: hepatitis B surface antigen (HBsAg); experiment: Vaginal wash anti-HBsAg antibody after intranasal HBsAg + AGP-AF; assay type: in vivo, BALB/c mice; conditions: 10 days after the booster immunization; intranasal HBsAg + 10 μg AGP-AF
Text: Vaginal samples were collected 10 days after the booster immunization and assayed for anti-HBsAg antibody.

influenza A/HK/68 [5] = assay type: in vivo, ICR mice; conditions: mouse, in vivo
[6] = tested on: hepatitis B surface antigen (HBsAg); experiment: Serum anti-HBsAg antibody titers after intranasal HBsAg + AGP-AF (ELISA); assay type: in vivo, BALB/c mice; conditions: for Anti HBsAg Titer^−1 IgG1 / Anti HBsAg Titer^−1 IgG2a: K = 10^3
[7] = tested on: hepatitis B surface antigen (HBsAg); conditions: for % Cytotoxicity (d16, post 2°): HBsAg + 10 μg AGP-AF intranasally; for % Cytotoxicity (d8, post 3°): intranasal HBsAg + 10 μg AGP-AF
E.G7 (OVA) cells = conditions: s.c. 25 μg OVA in AGP preparation, spleen cells 21 days later
influenza A/HK/68 [8] = conditions: mouse, in vivo
ovalbumin = experiment: Stimulation of antiovalbumin antibody production; assay type: in vivo, BDF1 female mice; conditions: 50 μg AGP + 50 μg ovalbumin; second immunization day 21; bled 14 days after second injection
Protocol: BDF1 female mice (8 per group) were immunized with 0.2 ml of emulsions containing 50 μg of the AGPs +50 μg of ovalbumin. A second immunization was administered 21 days post primary. Each mouse was bled 14 days after the second injection.

tetanus toxoid [9] = conditions: mouse, in vivo, sc
tetanus toxoid [10] = conditions: mouse, in vivo
[11] = tested on: hepatitis B surface antigen (HBsAg); experiment: Anti-HBsAg antibody titer with AGP-SE (ELISA plates coated with HBsAg or p72 peptide); conditions: sera day 28 post 2°, 25 μg AGP-SE
[12] = day 22 post 2°, HBsAg + 10 μg AGP-AF intranasally
[13] = serum, day 21 post 3°, intranasal HBsAg + 10 μg AGP-AF
[14] = ELISA plates coated with p72 peptide

## N-[(R)-3-Hexanoyloxytetradecanoyl]-O-[2-deoxy-4-O-phosphono-2-[(R)-3-hexanoyloxytetradecanoylamino]-3-O-[(R)-3-hexanoyloxytetradecanoyl]-α-D-glucopyranosyl]-L-serine Triethylammonium Salt [B34]
Influenza A/HK/68 [1]; mouse, in vivo
  Mucosal IgA Response TW: <4.6
  Mucosal IgA Response VW: <4.6
  Percent Protection: 0%
  Serum IgG Titers: 8.4
[2]
  PYROGENICITY Total Rise ° C., 3 rabbits: 2.8 °C

## 3-Hydroxy-(S)-2-[(R)-3-undecanoyloxytetradecanoylamino]propyl 2-Deoxy-4-O-phosphono-2-[(R)-3-undecanoyloxytetradecanoylamino]-3-O-[(R)-3-undecanoyloxytetradecanoyl]-β-D-glucopyranoside Triethylammonium Salt [B4]
Influenza A/HK/68 [3]
  IgG Titer-1 post 1°: 800
  IgG Titer-1 post 2°: 25,600
  Percent Survival post 1°: 50%
  Percent Survival post 2°: 70%
[4]
  Vaginal Wash Anti-HBsAg Titer^−1 IgA: 6400
  Vaginal Wash Anti-HBsAg Titer^−1 IgG: 1600
Influenza A/HK/68 [5]
  Percent Survival: 60%
  Titer−1 IgG1: 400
  Titer−1 IgG2a: 100
  Titer−1 IgG2b: 1600
  Titer−1 Total IgG: 3200
[6]; [12]
  Anti HBsAg Titer^−1 IgA: 6,400
  Anti HBsAg Titer^−1 IgG1: 500K
  Anti HBsAg Titer^−1 IgG2a: 1000K
[6]; [13]
  Anti HBsAg Titer^−1 IgG1: 1000K
  Anti HBsAg Titer^−1 IgG2a: 2000K
  Anti HBsAg Titer^−1 IgA: 25,600
[7]; E/T 6.25:1
  % Cytotoxicity (d16, post 2°): 7%
  % Cytotoxicity (d8, post 3°): 5%
[7]; E/T 12.5:1
  % Cytotoxicity (d16, post 2°): 9%
  % Cytotoxicity (d8, post 3°): 9%
[7]; E/T 25:1
  % Cytotoxicity (d16, post 2°): 17%
  % Cytotoxicity (d8, post 3°): 15%
[7]; E/T 50:1
  % Cytotoxicity (d16, post 2°): 28%
  % Cytotoxicity (d8, post 3°): 23%
[2]
  PYROGENICITY Total Rise ° C., 3 rabbits: 3.4 °C
E.G7 (OVA) cells; E:T 12.5:1
  % Cytotoxicity: 60%
E.G7 (OVA) cells; E:T 25:1
  % Cytotoxicity: 66%
E.G7 (OVA) cells; E:T 50:1
  % Cytotoxicity: 72%

## 3-O-deacylated monophosphoryl lipid A [MPL®, reference compound]
Influenza A/HK/68 [1]; administered intranasally with influenza vaccine, vaginal and tracheal washes
  mucosal adjuvant activity (in words): act as mucosal adjuvants causing the production of IgA at two mucosal sites

## 3-[(R)-3-Tetradecanoyloxytetradecanoylamino]propyl 2-Deoxy-4-O-phosphono-3-O-[(R)-3-tetradecanoyoxytetradecanoyl]-2-[(R)-3-tetradecanoyloxytetradecanoylamino])-β-D-glucopyranoside Triethylammonium Salt [B21]
Influenza A/HK/68 [8]
  Percent Survival: 40%
  Titer−1 IgG1: 800
  Titer−1 IgG2a: 100
  Titer−1 IgG2b: 1600
  Titer−1 Total IgG: 6400
ovalbumin
  Anti-ovalbumin IgG1 T/C: 0.6
  Anti-ovalbumin IgG1 Titer: 1000
  Anti-ovalbumin IgG2a T/C: 0.1
  Anti-ovalbumin IgG2a Titer: 25
  Anti-ovalbumin IgG2b T/C: 0.8
  Anti-ovalbumin IgG2b Titer: 200
  Anti-ovalbumin IgM T/C: 1.3
  Anti-ovalbumin IgM Titer: 250
  Anti-ovalbumin Total Ig T/C: 0.5
  Anti-ovalbumin Total Ig Titer: 113
Tetanus toxoid [9]
  Anti-tetanus toxoid IgG1 T/C: 2.23
  Anti-tetanus toxoid IgG1 Titer: 480,000
  Anti-tetanus toxoid IgG2a T/C: 5.83
  Anti-tetanus toxoid IgG2a Titer: 29,600
  Anti-tetanus toxoid IgG2b T/C: 6.07
  Anti-tetanus toxoid IgG2b Titer: 174,400
  Anti-tetanus toxoid IgM T/C: 5.50
  Anti-tetanus toxoid IgM Titer: 8,800
  Anti-tetanus toxoid Total IgG T/C: 4.71
  Anti-tetanus toxoid Total IgG Titer: 30,400

## 3-Hydroxy-(S)-2-[(R)-3-decanoyloxytetradecanoylamino]propyl 2-Deoxy-4-O-phosphono-2-[(R)-3-decanoyloxytetradecanoylamino]-3-O-[(R)-3-decanoyloxytetradecanoyl]-β-D-glucopyranoside Triethylammonium Salt [B5]
Influenza A/HK/68 [3]
  IgG Titer-1 post 1°: 1600
  IgG Titer-1 post 2°: >102,400
  Percent Survival post 1°: 60%
  Percent Survival post 2°: 90%
[4]
  Vaginal Wash Anti-HBsAg Titer^−1 IgA: 1600
  Vaginal Wash Anti-HBsAg Titer^−1 IgG: 1600
Influenza A/HK/68 [5]
  Percent Survival: 44%
  Titer−1 IgG1: 200
  Titer−1 IgG2a: 50
  Titer−1 IgG2b: 400
  Titer−1 Total IgG: 800
[6]; [12]
  Anti HBsAg Titer^−1 IgA: 3,200
  Anti HBsAg Titer^−1 IgG1: 256K
  Anti HBsAg Titer^−1 IgG2a: 500K
[6]; [13]
  Anti HBsAg Titer^−1 IgG1: 500K
  Anti HBsAg Titer^−1 IgG2a: 1000K
  Anti HBsAg Titer^−1 IgA: 12,800
[7]; E/T 6.25:1
  % Cytotoxicity (d16, post 2°): 11%
  % Cytotoxicity (d8, post 3°): 12%
[7]; E/T 12.5:1
  % Cytotoxicity (d16, post 2°): 20%
  % Cytotoxicity (d8, post 3°): 19%
[7]; E/T 25:1
  % Cytotoxicity (d16, post 2°): 30%
  % Cytotoxicity (d8, post 3°): 30%
[7]; E/T 50:1
  % Cytotoxicity (d16, post 2°): 43%
  % Cytotoxicity (d8, post 3°): 44%
[2]
  PYROGENICITY Total Rise ° C., 3 rabbits: 4.1 °C
E.G7 (OVA) cells; E:T 12.5:1
  % Cytotoxicity: 11%
E.G7 (OVA) cells; E:T 25:1
  % Cytotoxicity: 18%
E.G7 (OVA) cells; E:T 50:1
  % Cytotoxicity: 28%

## 4-[(R)-3-Tetradecanoyloxytetradecanoylamino]butyl 2-Deoxy-4-O-phosphono-3-O-[(R)-3-tetradecanoyoxytetradecanoyl]-2-[(R)-3-tetradecanoyloxytetradecanoylamino])-β-D-glucopyranoside Triethylammonium Salt [B22]
Influenza A/HK/68 [8]
  Percent Survival: 40%
  Titer−1 IgG1: 100
  Titer−1 IgG2a: 3200
  Titer−1 IgG2b: 200
  Titer−1 Total IgG: 3200
[4]
  Vaginal Wash Anti-HBsAg Titer^−1 IgA: 800
  Vaginal Wash Anti-HBsAg Titer^−1 IgG: 100
[6]; [12]
  Anti HBsAg Titer^−1 IgA: 1,600
  Anti HBsAg Titer^−1 IgG1: 256K
  Anti HBsAg Titer^−1 IgG2a: 64K
[6]; [13]
  Anti HBsAg Titer^−1 IgG1: 500K
  Anti HBsAg Titer^−1 IgG2a: 500K
  Anti HBsAg Titer^−1 IgA: 12,800
Tetanus toxoid [10]
  Anti-Tetanus Toxoid Titer^−1 Fecal Extract IgG: 25 and 50
  Anti-Tetanus Toxoid Titer^−1 Vaginal Wash IgG: 400 and 800
Tetanus toxoid [9]
  Anti-tetanus toxoid IgG1 T/C: 18.4
  Anti-tetanus toxoid IgG1 Titer: 27,400
  Anti-tetanus toxoid IgG2a T/C: 345.8
  Anti-tetanus toxoid IgG2a Titer: 5,187
  Anti-tetanus toxoid IgG2b T/C: 59.6
  Anti-tetanus toxoid IgG2b Titer: 3,160
  Anti-tetanus toxoid IgM T/C: 0.8
  Anti-tetanus toxoid IgM Titer: 440
  Anti-tetanus toxoid Total Ig T/C: 60.0
  Anti-tetanus toxoid Total Ig Titer: 19,050
[11]; ELISA plates coated with HBsAg
  Anti-HBsAg Titer^−1 HBsAg IgG1: 1024K
  Anti-HBsAg Titer^−1 HBsAg IgG2a: 1024K
[11]; [14]
  Anti-HBsAg Titer^−1 p72-Peptide IgG1: 128K
  Anti-HBsAg Titer^−1 p72-Peptide IgG2a: 128K
